Reference: ChEMBL document CHEMBL1201862, “PubChem BioAssay data set” (2004)
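Method: 48-hour compound exposure of cells in 96-well plates, five concentrations, linear interpolation of endpoints. At the GI50, growth is halved.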 Activity calls are given as the source filed them. No stated cut-off is given here; in the data, active = GI50 up to about 1.1 µM and inactive = higher.

What was measured:
Assay in all cases: NCI tumour cell line growth inhibition, 48 h
NCI-H226 = system: NCI-H226
HCT-116 = system: HCT-116
EKVX = system: EKVX
SK-MEL-5 = system: SK-MEL-5
RPMI-8226 = system: RPMI-8226
DU-145 = system: DU-145
Hs-578T = system: Hs-578T
K562 = system: K562
SK-MEL-28 = system: SK-MEL-28
NCI-H460 = system: NCI-H460
OVCAR-8 = system: OVCAR-8
NCI-H522 = system: NCI-H522
SR = system: SR
CAKI-1 = system: CAKI-1
SK-MEL-2 = system: SK-MEL-2
UACC-257 = system: UACC-257
SW-620 = system: SW-620
TK-10 = system: TK-10
IGROV-1 = system: IGROV-1
KM12 = system: KM12
HT-29 = system: HT-29
NCI-H23 = system: NCI-H23
MOLT-4 = system: MOLT-4
M14 = system: M14
OVCAR-4 = system: OVCAR-4
PC-3 = system: PC-3
OVCAR-5 = system: OVCAR-5
MDA-MB-231 = system: MDA-MB-231
UO-31 = system: UO-31
UACC-62 = system: UACC-62
786-0 = system: 786-0
T47D = system: T47D
BT-549 = system: BT-549
SNB-75 = system: SNB-75
HOP-92 = system: HOP-92
A549 = system: A549
HCT-15 = system: HCT-15
U-251 = system: U-251
OVCAR-3 = system: OVCAR-3
MDA-N = system: MDA-N
Malme-3M = system: Malme-3M
NCI/ADR-RES = system: NCI/ADR-RES
SF-295 = system: SF-295
ACHN = system: ACHN
MCF7 = system: MCF7
COLO 205 = system: COLO 205
HOP-62 = system: HOP-62
MDA-MB-435 = system: MDA-MB-435
SN12C = system: SN12C
SF-539 = system: SF-539
LOX IMVI = system: LOX IMVI
CCRF-CEM = system: CCRF-CEM
SF-268 = system: SF-268
SK-OV-3 = system: SK-OV-3
HL-60 = system: HL-60
HCC 2998 = system: HCC 2998
SNB-19 = system: SNB-19
A498 = system: A498
RXF 393 = system: RXF 393

Compound: CCOC(=O)/C=C(\C(=O)OCC)n1ccc(N)nc1=O
- GI50 (NCI-H226): > 100 µM (inactive)
- GI50 (HCT-116): > 100 µM (inactive)
- GI50 (EKVX): 62.8 µM (inactive)
- GI50 (SK-MEL-5): > 100 µM (inactive)
- GI50 (RPMI-8226): > 100 µM (inactive)
- GI50 (DU-145): > 100 µM (inactive)
- GI50 (Hs-578T): > 100 µM (inactive)
- GI50 (K562): 67.9 µM (inactive)
- GI50 (SK-MEL-28): 1.34 µM (inactive)
- GI50 (NCI-H460): > 100 µM (inactive)
- GI50 (OVCAR-8): > 100 µM (inactive)
- GI50 (NCI-H522): 18.2 µM (inactive)
- GI50 (SR): 87.7 µM (inactive)
- GI50 (CAKI-1): 37.7 µM (inactive)
- GI50 (SK-MEL-2): > 100 µM (inactive)
- GI50 (UACC-257): > 100 µM (inactive)
- GI50 (SW-620): 56.4 µM (inactive)
- GI50 (TK-10): > 100 µM (inactive)
- GI50 (IGROV-1): > 100 µM (inactive)
- GI50 (KM12): > 100 µM (inactive)
- GI50 (HT-29): 52.2 µM (inactive)
- GI50 (NCI-H23): > 100 µM (inactive)
- GI50 (MOLT-4): 97.1 µM (inactive)
- GI50 (M14): > 100 µM (inactive)
- GI50 (OVCAR-4): 72.9 µM (inactive)
- GI50 (PC-3): > 100 µM (inactive)
- GI50 (OVCAR-5): 33 µM (inactive)
- GI50 (MDA-MB-231): > 100 µM (inactive)
- GI50 (UO-31): > 100 µM (inactive)
- GI50 (UACC-62): > 100 µM (inactive)
- GI50 (786-0): > 100 µM (inactive)
- GI50 (T47D): > 100 µM (inactive)
- GI50 (BT-549): 38.6 µM (inactive)
- GI50 (SNB-75): > 100 µM (inactive)
- GI50 (HOP-92): 57.4 µM (inactive)
- GI50 (A549): > 100 µM (inactive)
- GI50 (HCT-15): > 100 µM
- GI50 (U-251): 72.3 µM (inactive)
- GI50 (OVCAR-3): > 100 µM (inactive)
- GI50 (MDA-N): > 100 µM (inactive)
- GI50 (Malme-3M): 45.7 µM (inactive)
- GI50 (NCI/ADR-RES): > 100 µM (inactive)
- GI50 (SF-295): > 100 µM (inactive)
- GI50 (ACHN): > 100 µM (inactive)
- GI50 (MCF7): > 100 µM (inactive)
- GI50 (COLO 205): > 100 µM (inactive)
- GI50 (HOP-62): > 100 µM (inactive)
- GI50 (MDA-MB-435): 94.6 µM (inactive)
- GI50 (SN12C): > 100 µM (inactive)
- GI50 (SF-539): > 100 µM (inactive)
- GI50 (LOX IMVI): 88.7 µM (inactive)
- GI50 (CCRF-CEM): 22.4 µM (inactive)
- GI50 (SF-268): > 99.8 µM (inactive)
- GI50 (SK-OV-3): > 100 µM (inactive)
- GI50 (HL-60): 26.6 µM (inactive)
- GI50 (HCC 2998): > 100 µM (inactive)
- GI50 (SNB-19): > 100 µM (inactive)

Compound: CC1CC(c2ccccc2)Nc2nc3ccccc3n21 (stereo not drawn)
- GI50 (NCI-H226): > 100 µM (inactive)
- GI50 (HCT-116): 66.4 µM (inactive)
- GI50 (EKVX): > 100 µM (inactive)
- GI50 (SK-MEL-5): > 100 µM (inactive)
- GI50 (RPMI-8226): > 100 µM (inactive)
- GI50 (Hs-578T): > 100 µM (inactive)
- GI50 (K562): > 100 µM (inactive)
- GI50 (SK-MEL-28): > 100 µM (inactive)
- GI50 (NCI-H460): > 100 µM (inactive)
- GI50 (OVCAR-8): > 100 µM (inactive)
- GI50 (NCI-H522): > 100 µM (inactive)
- GI50 (SR): > 100 µM (inactive)
- GI50 (CAKI-1): > 100 µM (inactive)
- GI50 (SK-MEL-2): > 100 µM (inactive)
- GI50 (UACC-257): > 100 µM (inactive)
- GI50 (SW-620): > 100 µM (inactive)
- GI50 (TK-10): > 100 µM (inactive)
- GI50 (IGROV-1): > 100 µM (inactive)
- GI50 (KM12): > 100 µM (inactive)
- GI50 (HT-29): 39.1 µM (inactive)
- GI50 (NCI-H23): > 100 µM (inactive)
- GI50 (MOLT-4): > 100 µM (inactive)
- GI50 (M14): > 100 µM (inactive)
- GI50 (OVCAR-4): > 100 µM (inactive)
- GI50 (PC-3): > 100 µM (inactive)
- GI50 (OVCAR-5): > 100 µM (inactive)
- GI50 (MDA-MB-231): > 100 µM (inactive)
- GI50 (UO-31): 59.8 µM (inactive)
- GI50 (UACC-62): > 100 µM (inactive)
- GI50 (786-0): > 100 µM (inactive)
- GI50 (T47D): > 100 µM (inactive)
- GI50 (BT-549): > 100 µM (inactive)
- GI50 (SNB-75): > 100 µM (inactive)
- GI50 (A498): > 100 µM (inactive)
- GI50 (HOP-92): > 100 µM (inactive)
- GI50 (A549): > 100 µM (inactive)
- GI50 (HCT-15): > 100 µM
- GI50 (U-251): > 100 µM (inactive)
- GI50 (OVCAR-3): > 100 µM (inactive)
- GI50 (MDA-N): > 100 µM (inactive)
- GI50 (Malme-3M): > 100 µM (inactive)
- GI50 (NCI/ADR-RES): > 100 µM (inactive)
- GI50 (SF-295): > 100 µM (inactive)
- GI50 (RXF 393): > 100 µM (inactive)
- GI50 (ACHN): > 100 µM (inactive)
- GI50 (MCF7): > 100 µM (inactive)
- GI50 (COLO 205): > 100 µM (inactive)
- GI50 (HOP-62): > 100 µM (inactive)
- GI50 (MDA-MB-435): > 100 µM (inactive)
- GI50 (SF-539): > 100 µM (inactive)
- GI50 (LOX IMVI): > 100 µM (inactive)
- GI50 (CCRF-CEM): > 100 µM (inactive)
- GI50 (SF-268): > 100 µM (inactive)
- GI50 (SK-OV-3): > 100 µM (inactive)
- GI50 (HL-60): > 100 µM (inactive)
- GI50 (SNB-19): > 100 µM (inactive)

Compound: CC(C)=CC[C@H]1C[C@]2(CC=C(C)C)C(=O)[C@@](CC=C(C)C)(C(=O)C(C(=O)c3ccccc3)=C2O)C1(C)C [6-EPI-CLUSIANONE]
- GI50 (NCI-H226): 14.1 µM (inactive)
- GI50 (HCT-116): 3.63 µM (inactive)
- GI50 (EKVX): 5.05 µM (inactive)
- GI50 (SK-MEL-5): 4.53 µM (inactive)
- GI50 (RPMI-8226): 3.37 µM (inactive)
- GI50 (Hs-578T): 14.3 µM (inactive)
- GI50 (K562): 3.87 µM (inactive)
- GI50 (SK-MEL-28): 10.2 µM (inactive)
- GI50 (NCI-H460): 3.3 µM (inactive)
- GI50 (OVCAR-8): 5.78 µM (inactive)
- GI50 (NCI-H522): 5.38 µM (inactive)
- GI50 (SR): 8.65 µM (inactive)
- GI50 (CAKI-1): 4.44 µM (inactive)
- GI50 (SK-MEL-2): 2.67 µM (inactive)
- GI50 (UACC-257): 4.71 µM (inactive)
- GI50 (SW-620): 6.28 µM (inactive)
- GI50 (TK-10): 5.15 µM (inactive)
- GI50 (IGROV-1): 3.82 µM (inactive)
- GI50 (KM12): 3.88 µM (inactive)
- GI50 (HT-29): 4.67 µM (inactive)
- GI50 (NCI-H23): 7.67 µM (inactive)
- GI50 (MOLT-4): 4.56 µM (inactive)
- GI50 (M14): 6.65 µM (inactive)
- GI50 (OVCAR-4): 5.15 µM (inactive)
- GI50 (PC-3): 4.78 µM (inactive)
- GI50 (OVCAR-5): 4.98 µM (inactive)
- GI50 (MDA-MB-231): 6.01 µM (inactive)
- GI50 (UO-31): 3.44 µM (inactive)
- GI50 (UACC-62): 3.44 µM (inactive)
- GI50 (786-0): 5.51 µM (inactive)
- GI50 (T47D): 5.2 µM (inactive)
- GI50 (BT-549): 8.93 µM (inactive)
- GI50 (SNB-75): 7.28 µM (inactive)
- GI50 (A498): 9.46 µM (inactive)
- GI50 (HOP-92): 4.31 µM (inactive)
- GI50 (A549): 4.94 µM (inactive)
- GI50 (HCT-15): 5.04 µM
- GI50 (U-251): 4.31 µM (inactive)
- GI50 (MDA-N): 5.21 µM (inactive)
- GI50 (Malme-3M): 6.49 µM (inactive)
- GI50 (NCI/ADR-RES): 5.33 µM (inactive)
- GI50 (SF-295): 4.27 µM (inactive)
- GI50 (RXF 393): 6.75 µM (inactive)
- GI50 (ACHN): 4.88 µM (inactive)
- GI50 (MCF7): 4.59 µM (inactive)
- GI50 (COLO 205): 3.94 µM (inactive)
- GI50 (HOP-62): 6.87 µM (inactive)
- GI50 (MDA-MB-435): 5.4 µM (inactive)
- GI50 (SN12C): 3.49 µM (inactive)
- GI50 (SF-539): 11.6 µM (inactive)
- GI50 (LOX IMVI): 3.46 µM (inactive)
- GI50 (SF-268): 10.2 µM (inactive)
- GI50 (SK-OV-3): 5.32 µM (inactive)
- GI50 (HCC 2998): 3.85 µM (inactive)
- GI50 (SNB-19): 5.21 µM (inactive)
